According to ChEMBL document CHEMBL1201862, “PubChem BioAssay data set” (2004):
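1) Cells in 96-well plates. 2) Compound, 48 h, 5 concentrations. 3) Linear interpolation between surrounding doses. 4) Unreached endpoint = highest concentration. At the GI50, growth is halved.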 The source made the active and inactive calls. Cut-off read from the data, not from the text of the source: active = GI50 up to about 1.1 µM and inactive = higher.

How the values were obtained:
Assay in all cases: NCI tumour cell line growth inhibition, 48 h
UO-31 = tested on: UO-31
HL-60 = tested on: HL-60
T47D = tested on: T47D
MOLT-4 = tested on: MOLT-4
RPMI-8226 = tested on: RPMI-8226
PC-3 = tested on: PC-3
EKVX = tested on: EKVX
SF-295 = tested on: SF-295
COLO 205 = tested on: COLO 205
NCI-H23 = tested on: NCI-H23
BT-549 = tested on: BT-549
MDA-MB-231 = tested on: MDA-MB-231
CAKI-1 = tested on: CAKI-1
TK-10 = tested on: TK-10
CCRF-CEM = tested on: CCRF-CEM
HCC 2998 = tested on: HCC 2998
OVCAR-3 = tested on: OVCAR-3
OVCAR-4 = tested on: OVCAR-4
LOX IMVI = tested on: LOX IMVI
MDA-MB-435 = tested on: MDA-MB-435

| Compound | GI50 (UO-31) | GI50 (HL-60) | GI50 (T47D) | GI50 (MOLT-4) | GI50 (RPMI-8226) | GI50 (PC-3) | GI50 (EKVX) | GI50 (SF-295) | GI50 (COLO 205) | GI50 (NCI-H23) | GI50 (BT-549) | GI50 (MDA-MB-231) | GI50 (CAKI-1) | GI50 (TK-10) | GI50 (CCRF-CEM) | GI50 (HCC 2998) | GI50 (OVCAR-3) | GI50 (OVCAR-4) | GI50 (LOX IMVI) | GI50 (MDA-MB-435) |
| --- | --- | --- | --- | --- | --- | --- | --- | --- | --- | --- | --- | --- | --- | --- | --- | --- | --- | --- | --- | --- |
| COc1ccc(C(=O)/C=C2\C(=O)Nc3ccc(Br)cc32)cc1 | 2.24 µM (inactive) | 1.99 µM (inactive) | 11.5 µM (inactive) | 2.41 µM (inactive) | 1.72 µM (inactive) | 6.68 µM (inactive) | 13.6 µM (inactive) | 16.2 µM (inactive) | 2.3 µM (inactive) | 4.27 µM (inactive) | 5.75 µM (inactive) | 5.57 µM (inactive) | 8.63 µM (inactive) | 1.68 µM (inactive) | 1.4 µM (inactive) | 4.26 µM (inactive) | 2.97 µM (inactive) | 16.5 µM (inactive) | 1.99 µM (inactive) | 6.75 µM (inactive) |
| Cc1cn(C2CC(n3cc(Cn4ccc(=O)[nH]c4=O)nn3)C(CO)O2)c(=O)[nH]c1=O (centres undefined) | > 100 µM (inactive) | 95.1 µM (inactive) | > 100 µM (inactive) | > 100 µM (inactive) | > 100 µM (inactive) | > 100 µM (inactive) |  | > 100 µM (inactive) | > 100 µM (inactive) | > 100 µM (inactive) | > 100 µM (inactive) | > 100 µM (inactive) | > 100 µM (inactive) | > 100 µM (inactive) | > 100 µM (inactive) | > 100 µM (inactive) | > 100 µM (inactive) | > 100 µM (inactive) |  | > 100 µM (inactive) |
| Clc1cc2ncn(C3CCCCO3)c2cc1Cl (centres undefined) | 16.1 µM (inactive) | 30.1 µM (inactive) | 44.6 µM (inactive) | 33.9 µM (inactive) | 66.8 µM (inactive) | 34.6 µM (inactive) | 20 µM (inactive) | 70.5 µM (inactive) | 77.3 µM (inactive) | 70.3 µM (inactive) | 22.2 µM (inactive) | 74.1 µM (inactive) | 39.4 µM (inactive) |  | 56.2 µM (inactive) | 64.6 µM (inactive) | 41 µM (inactive) | 48.9 µM (inactive) | 32.5 µM (inactive) | 75.9 µM (inactive) |
| CC(C#N)NCc1ccc(C(C)NC(C)C#N)cc1 (centres undefined) | 93.1 µM (inactive) | > 100 µM (inactive) | > 100 µM (inactive) | > 100 µM (inactive) |  | > 100 µM (inactive) | > 100 µM (inactive) | > 100 µM (inactive) | > 100 µM (inactive) | > 100 µM (inactive) | > 100 µM (inactive) | > 100 µM (inactive) | > 100 µM (inactive) | > 100 µM (inactive) | > 100 µM (inactive) | > 100 µM (inactive) | > 100 µM (inactive) | > 100 µM (inactive) | > 100 µM (inactive) | > 100 µM (inactive) |
| O=C(NNC(=S)NC1CCCCC1)C12CC3CC(CC(C3)C1)C2 | > 100 µM (inactive) | > 100 µM (inactive) | > 100 µM (inactive) | > 100 µM (inactive) | > 100 µM (inactive) | > 100 µM (inactive) |  | > 100 µM (inactive) | > 100 µM (inactive) | > 100 µM (inactive) | > 100 µM (inactive) | > 100 µM (inactive) | > 100 µM (inactive) | > 100 µM (inactive) | > 100 µM (inactive) | > 100 µM (inactive) | > 100 µM (inactive) | > 100 µM (inactive) | > 100 µM (inactive) | > 100 µM (inactive) |
| COc1ccc(C2=C(N)c3cc(OC)ccc3C2=O)cc1 |  | > 100 µM (inactive) | 36.7 µM (inactive) | > 100 µM (inactive) | 38.2 µM (inactive) | > 100 µM (inactive) | > 100 µM (inactive) | > 100 µM (inactive) | > 100 µM (inactive) | 55.7 µM (inactive) | > 100 µM (inactive) | > 100 µM (inactive) | > 100 µM (inactive) |  |  | > 100 µM (inactive) | > 100 µM (inactive) | > 100 µM (inactive) | > 100 µM (inactive) | > 100 µM (inactive) |
| CN(CCCNC(=O)c1c2ccc3ccccc3c2nn1C)CCCNC(=O)c1c2ccc3ccccc3c2nn1C | 6.47 µM (inactive) | 10.4 µM (inactive) | 7.62 µM (inactive) | 4.85 µM (inactive) | 1.95 µM (inactive) | 12.4 µM (inactive) | 9.14 µM (inactive) | 4.29 µM (inactive) | 1.81 µM (inactive) | 15.1 µM (inactive) | 10.6 µM (inactive) | 10.5 µM (inactive) | 1.6 µM (inactive) | 2.67 µM (inactive) | 8.18 µM (inactive) | 1.87 µM (inactive) | 16 µM (inactive) | 11.7 µM (inactive) | 3.15 µM (inactive) | 2.29 µM (inactive) |
| CC(=O)Oc1ccc2c(c1)c1c(=O)oc(C)nc1n2Cc1ccccc1 | 2.79 µM (inactive) | 57.7 µM (inactive) | 33.5 µM (inactive) | 71.8 µM (inactive) | 56.4 µM (inactive) | 41.8 µM (inactive) | > 53.5 µM (inactive) | 43.6 µM (inactive) | 24.6 µM (inactive) | > 63.5 µM (inactive) | 17.4 µM (inactive) | 33.7 µM (inactive) | 4.99 µM (inactive) | 35.2 µM (inactive) | > 64.3 µM (inactive) | > 100 µM (inactive) | 77.6 µM (inactive) | > 75.7 µM (inactive) | 32 µM (inactive) | 28.3 µM (inactive) |
| Cc1ccc2c(ccc3c[n+]4ccccc4c(C)c32)c1.[O-][Cl+3]([O-])([O-])[O-] | 20.7 µM (inactive) | 11.7 µM (inactive) | 2.47 µM (inactive) | 7.91 µM (inactive) | 4.15 µM (inactive) | 0.904 µM (active) | 62.4 µM (inactive) | 1.39 µM (inactive) | 1.32 µM (inactive) | 1.32 µM (inactive) | 1.15 µM (inactive) | 6.61 µM (inactive) | 0.297 µM (active) | 23.4 µM (inactive) | 6.64 µM (inactive) | 2.77 µM (inactive) | 1.12 µM (active) | 2.07 µM (inactive) | 11.7 µM (inactive) | 4.73 µM (inactive) |
| CCOC(=O)c1ccc(NC(=O)O/N=C(/Cl)CC)cc1 | 17.5 µM (inactive) | 2.21 µM (inactive) | 7.73 µM (inactive) | 2 µM (inactive) | 1.99 µM (inactive) | 18.8 µM (inactive) | 16.1 µM (inactive) | 19.5 µM (inactive) | 2.41 µM (inactive) | 17.4 µM (inactive) | 19.2 µM (inactive) | 19.6 µM (inactive) | 4.57 µM (inactive) |  | 1.82 µM (inactive) | 18.1 µM (inactive) | 1.83 µM (inactive) | 5.21 µM (inactive) |  | 17.7 µM (inactive) |
| Nc1cccc(S(=O)(=O)Nc2nnc(S(N)(=O)=O)s2)c1 | > 100 µM (inactive) | > 100 µM (inactive) | > 100 µM (inactive) | > 100 µM (inactive) | > 100 µM (inactive) | > 100 µM (inactive) | > 100 µM (inactive) | > 100 µM (inactive) | > 100 µM (inactive) | > 100 µM (inactive) | > 100 µM (inactive) | > 100 µM (inactive) | > 100 µM (inactive) | > 100 µM (inactive) |  | > 100 µM (inactive) | > 100 µM (inactive) | > 100 µM (inactive) | > 100 µM (inactive) | > 100 µM (inactive) |
